In publication PMC11568248, “Targeting Candida albicans O-acetyl-L-homoserine sulfhydrylase (Met15p) in antifungal treatment” (Scientific Reports, 2024):

T1: CaMet15NHp (Candida albicans, UniProt Q59US5)
T1 construct: gene MET15; mostly homotetramer
T1 sequence (Q59US5 2-440): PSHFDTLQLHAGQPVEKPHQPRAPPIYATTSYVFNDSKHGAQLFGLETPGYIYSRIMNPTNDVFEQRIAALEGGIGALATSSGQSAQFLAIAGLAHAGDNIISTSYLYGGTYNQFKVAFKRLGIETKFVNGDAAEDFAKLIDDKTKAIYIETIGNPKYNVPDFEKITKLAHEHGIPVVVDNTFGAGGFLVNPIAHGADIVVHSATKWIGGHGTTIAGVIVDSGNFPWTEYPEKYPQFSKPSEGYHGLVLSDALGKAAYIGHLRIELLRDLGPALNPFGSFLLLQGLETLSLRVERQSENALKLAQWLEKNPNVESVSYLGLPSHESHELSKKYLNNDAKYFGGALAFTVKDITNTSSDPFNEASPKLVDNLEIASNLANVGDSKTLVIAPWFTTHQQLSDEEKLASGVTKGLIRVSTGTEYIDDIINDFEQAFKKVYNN

B1: CaMet15NHp (Candida albicans SC5314) (protein)
chain: T1 sequence (Q59US5 2-440)

Assays:
CaMet15NHp [1] = target: T1, CaMet15NHp; test: RP-HPLC-DAD of L-homocysteine derivatized with DTNB; type: biochemical; details: substrates OAH and Na2S, 0.2 mM PLP, pH 8.0, 37 °C; racemate
CaMet15NHp [2] = target: T1, CaMet15NHp; test: as above; type: biochemical; details: read-out: % inhibition at 10 mM
S = test: purified protein; details: O-acetyl-L-homoserine co-substrate, 0.2 mM PLP, 50 mM Tris-HCl pH 8.0, 100 mM NaCl, 37 °C, sulfide ion donor
purified protein = substrate: CC(=O)OCC[C@H](N)C(=O)O; test: purified protein; details: Na2S co-substrate, 0.2 mM PLP, 50 mM Tris-HCl pH 8.0, 100 mM NaCl, 37 °C

Molecule | inhibition at 10000 µM (CaMet15NHp [2]) [%] | other results
C=CCC(N)C(=O)O (racemic) [DL-ALG, DL-2-allylglycine] |  | % inhibition at 10 mM (CaMet15NHp [1]): DL-2-allyglycine (DL-ALG), and DL-glufosinate (DL-GLUF) were slightly inhibitory
CP(=O)(O)CCC(N)C(=O)O (racemic) [DL-GLUF, DL-glufosinate] |  | % inhibition at 10 mM (CaMet15NHp [1]): DL-2-allyglycine (DL-ALG), and DL-glufosinate (DL-GLUF) were slightly inhibitory
CC(=O)NCC[C@H](N)C(=O)O [AcDAB, N[4]-acetyl-(S)−2,4-diaminobutanoic acid] | ~70 | 
N[C@@H](CCNC(=O)c1ccccc1)C(=O)O [BzDAB, 3-benzamido-1-carboxypropan-1-aminium chloride] | ~44 | 
CSCC[C@H](N)C(=O)O [L-Met, L-methionine] | < 15 | 
CC(C)(S)[C@H](N)C(=O)O [L-PEN, L-penicillamine] | > 50 | 
CaMet15NHp (Candida albicans SC5314) |  | Km (S): 0.027 ± 0.0021 mM
B1 |  | Km (purified protein): 9.12 ± 1.77 mM
